Patent publication US20080193976A1 (priority 2005, published 2008)

System: CD4+T-cells
Type: cell-based, human

| Substance | epitope classification | responders [%] | positive control response |
| --- | --- | --- | --- |
| ARGRIRNGALLRVYVPRS [Peptide 75-76] | major (or significant) epitope | 22.62 | – |
| RLVALYLAARLSWNQ [Peptide 15] | minor epitopes | 14.29 | – |
| SQDLDAIWRGFYIAG [Peptide 65] | minor epitopes | 14.29 | – |
| tetanus toxoid [reference compound] | – | – | robust positive control responses |
